{
  "source": "paper PMC4425855",
  "about": "“Novel pantothenate derivatives for anti-malarial chemotherapy” (Malaria Journal, 2015)",
  "data": [
    {"molecular_target": "T1, vanin enzymatic activity in human serum (Homo sapiens, UniProt O95497)", "T1 sequence (O95497 22-491)": "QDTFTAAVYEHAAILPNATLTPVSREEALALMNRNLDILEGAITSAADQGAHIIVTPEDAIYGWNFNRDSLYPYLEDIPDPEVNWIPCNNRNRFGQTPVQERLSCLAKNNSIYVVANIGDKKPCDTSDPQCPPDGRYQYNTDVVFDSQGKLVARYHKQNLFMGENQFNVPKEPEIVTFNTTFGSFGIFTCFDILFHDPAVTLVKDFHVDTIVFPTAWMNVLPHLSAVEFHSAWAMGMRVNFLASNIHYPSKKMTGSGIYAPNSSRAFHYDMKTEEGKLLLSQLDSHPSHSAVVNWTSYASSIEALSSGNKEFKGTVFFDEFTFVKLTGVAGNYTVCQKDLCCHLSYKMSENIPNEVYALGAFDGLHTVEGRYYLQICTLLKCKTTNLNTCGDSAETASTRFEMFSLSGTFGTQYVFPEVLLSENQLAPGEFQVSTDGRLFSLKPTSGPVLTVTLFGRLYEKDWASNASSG", "test": "Vanin/pantetheinase activity assay with AMC substrate and fluorescence readout", "type": "biochemical", "conditions": "not given", "values": [
      {"smiles": "CC(C)(C)c1ccc(CC(=O)CCNC(=O)[C@H](O)C(C)(C)CO)cc1", "note": "[CXP14.1-060]", "potency against human vanins (in words)": "nanomolar potency"}
    ]},
    {"system": "P. falciparum", "test": "not given", "design": "method as in PMID 23405100", "conditions": "'aged' medium; cited from earlier work", "units": {"IC50": "µM"}, "values": [
      {"smiles": "CC(C)(CO)[C@@H](O)C(=O)NCCC(=O)NCCc1ccccc1", "note": "[Phenethyl-Pan]", "IC50": 0.02}
    ]},
    {"system": "asexual NF54 strain P. falciparum", "test": "Plasmodium falciparum asexual blood stages proliferation assay with SYBR Green read-out", "type": "cell-based", "conditions": "Plasmodium falciparum, NF54, 72 h, compound alone; NF54 asexual blood stages, 10% human serum, 72 hours, relative to DHA control; read-out: Anti-malarial activity IC50", "procedure": "(§1) The asexual stages of the NF54 strain P. falciparum were cultured as previously described, utilizing a shaker system with automated media change twice a day, parasites were kept in continuous culture within adapted Erlenmeyer flasks. Erythrocytes were refreshed every two or three days to adjust haematocrit to 5% and parasitaemia to 0.5%. Human erythrocytes (blood type A) were obtained from healthy blood donors, with no history of malaria. Culture media consisted of RPMI 1640 with HEPES [5.94 g/l, hypoxanthine [0.05 g/l], 10% (v/v) pooled human serum (blood type A) obtained similarly to erythrocytes, and 0,2% (w/v) sodium bicarbonate. Temperature was set to 37°C and a low oxygen gas mixture was constantly flushed over the culture maintaining a stable atmosphere of 3% O2, 4% CO2, and 93% N2.\n(§2) A non-synchronous asexual NF54 strain P. falciparum culture was adjusted to a parasitaemia of 0.5-1% and a haematocrit of 1-5%. The compound dilution curves were prepared in dimethylsulphoxide (DMSO) from 100 mM to 10 μM at half/log step dilutions. The established anti-malarial dihydroartemisinin (DHA) was used as a positive control and diluted in DMSO from 1 mM to 100 nM at half/log step dilutions. The DMSO dilutions were 500-fold diluted in growth medium to yield a final DMSO concentration of 0.2% (v/v), and final compound concentrations from 200 μM to 20 nM (2 μM to 200 pM for DHA). Higher concentrations for the experimental compounds would not have been possible to achieve due to limitations in final DMSO concentration (0.1% v/v). Fifty μl of each compound dilution was combined with 50 μl of parasite culture in a black, clear-bottomed or entirely black 96-well plate. The outermost wells were filled with sterile water to prevent evaporation. DHA at a concentration of 1 μM and 0.1% DMSO (negative control) were used to determine the assay window. The 96-well plates were incubated for 72 hours in a candle jar at 37°C. Read-out was done using the DNA-marker SYBR Green as described previously. All assays were conducted at least in triplicate.\n(§3) When combining two compounds in the same well the conditions were otherwise similar to the single compound assays, however the final DMSO concentration was 0.2%, which was also adjusted for the positive and negative controls and was not found to cause differences in results obtained with single compounds in assay containing 0.1% DMSO. The pantothenamide phenethyl-Pan was combined with a 10^−7 to 10^−5 M concentration curve of CXP14.1-060; the other pantothenamides were combined only with a 5 μM concentration of the same vanin inhibitor. The pantothenone vanin inhibitor RR8 was additionally combined with 20 μM, 6.3 μM, 2.0 μM, and 0.6 μM of pantothenate to explore potential competition for the same molecular target in P. falciparum. All assays were conducted at least in triplicate.\n(§4) Statistical analyses were performed using GraphPad Prism 5. This includes producing inhibition curves, normalizing them to percentage of inhibition, calculation of IC50 values, correlation coefficients (Spearman non-parametric correlation), and Schild analyses. The IC50 is the concentration of the compound in question at which the compound reaches 50% inhibition relative to the DHA control curve, and is calculated using the interpolate function in GraphPad Prism 5.", "units": {"IC50": "µM"}, "values": [
      {"smiles": "CC(C)(CO)[C@@H](O)C(=O)N/C=C/C(=O)O", "note": "[CJ-15,801]", "IC50": "> 100"},
      {"smiles": "CC(C)(CO)[C@@H](O)C(=O)NCCC(O)Cc1ccccc1", "note": "(stereo partly shown) [CXP14.1-034]", "IC50": 24.1},
      {"smiles": "CC(C)(C)c1ccc(CC(=O)CCNC(=O)[C@H](O)C(C)(C)CO)cc1", "note": "[CXP14.1-060]", "IC50": "> 100"},
      {"smiles": "CCCCCNC(=O)CCNC(=O)[C@H](O)C(C)(C)CO", "note": "[N5-Pan]", "IC50": "≥ 50"},
      {"smiles": "CCCCCCCNC(=O)CCNC(=O)[C@H](O)C(C)(C)CO", "note": "[N7-Pan]", "IC50": "≥ 50"},
      {"smiles": "CCCCCCCCCNC(=O)CCNC(=O)[C@H](O)C(C)(C)CO", "note": "[N9-Pan]", "IC50": "~15"},
      {"smiles": "CC(C)(CO)[C@@H](O)C(=O)NCCCO", "note": "[Pantothenol]", "IC50": "> 100"},
      {"smiles": "CC(C)(CO)[C@@H](O)C(=O)NCCC(=O)NCCc1ccccc1", "note": "[Phenethyl-Pan]", "IC50": "≥ 50"},
      {"smiles": "C=CCCC(=O)CCNC(=O)[C@H](O)C(C)(C)CO", "note": "[RR2]", "IC50": 2.6},
      {"smiles": "CC(C)(CO)[C@@H](O)C(=O)NCCC(=O)CCc1ccccc1", "note": "[RR7]", "IC50": 7.7},
      {"smiles": "CC(C)(CO)[C@@H](O)C(=O)NCCC(=O)CCCc1ccccc1", "note": "[RR8]", "IC50": 2.2},
      {"smiles": "CC(C)(CO)[C@@H](O)C(=O)NCCC(=O)c1ccccc1", "note": "[SN 12,601]", "IC50": 6.1},
      {"smiles": "CC(C)(CO)[C@@H](O)C(=O)NCCS(=O)(=O)Nc1ccccc1", "note": "[SN 14,621]", "IC50": 33.6},
      {"smiles": "CC(C)(CO)[C@@H](O)C(=O)NCCS(=O)(=O)Nc1ccc(Cl)cc1", "note": "[SN 14,622]", "IC50": 7.4}
    ]},
    {"system": "asexual NF54 strain P. falciparum", "test": "Plasmodium falciparum asexual blood stages proliferation assay with SYBR Green read-out", "type": "cell-based", "conditions": "RR8 dilution curve combined with 20 μM, 6.3 μM, 2.0 μM and 0.6 μM of pantothenate", "procedure": "as §1, §2, §3, §4", "values": [
      {"smiles": "CC(C)(CO)[C@@H](O)C(=O)NCCC(=O)CCCc1ccccc1", "note": "[RR8]", "slope of the line in the Schild Plot": "1.087 ± 0.089"}
    ]},
    {"system": "asexual NF54 strain P. falciparum", "test": "Plasmodium falciparum asexual blood stages proliferation assay with SYBR Green read-out", "type": "cell-based", "conditions": "addition of increasing concentrations of pantothenate", "procedure": "as §1, §2, §3, §4", "values": [
      {"smiles": "CC(C)(CO)[C@@H](O)C(=O)NCCC(=O)CCCc1ccccc1", "note": "[RR8]", "shift of IC50 on addition of pantothenate": "increase in the IC50"}
    ]},
    {"system": "asexual NF54 strain P. falciparum", "test": "Plasmodium falciparum asexual blood stages proliferation assay with SYBR Green read-out", "type": "cell-based", "conditions": "combined with 5 μM of vanin inhibitor CXP14.1-060", "procedure": "as §1, §2, §3, §4", "values": [
      {"smiles": "C[C@H]1[C@@H](O)O[C@@H]2O[C@@]3(C)CC[C@H]4[C@H](C)CC[C@@H]1[C@@]24OO3", "note": "[DHA, dihydroartemisinin]", "change of anti-malarial potency upon vanin inhibition": "did not change"},
      {"smiles": "CCCCCNC(=O)CCNC(=O)[C@H](O)C(C)(C)CO", "note": "[N5-Pan]", "change of anti-malarial potency upon vanin inhibition": "increased"},
      {"smiles": "CCCCCCCNC(=O)CCNC(=O)[C@H](O)C(C)(C)CO", "note": "[N7-Pan]", "change of anti-malarial potency upon vanin inhibition": "increased"},
      {"smiles": "CCCCCCCCCNC(=O)CCNC(=O)[C@H](O)C(C)(C)CO", "note": "[N9-Pan]", "change of anti-malarial potency upon vanin inhibition": "not increased"}
    ]},
    {"system": "asexual NF54 strain P. falciparum", "test": "Plasmodium falciparum asexual blood stages proliferation assay with SYBR Green read-out", "type": "cell-based", "conditions": "compound alone, 10% human serum; highest concentration tested 100 μM", "procedure": "as §1, §2, §3, §4", "values": [
      {"smiles": "CC(C)(CO)[C@@H](O)C(=O)N/C=C/C(=O)O", "note": "[CJ-15,801]", "anti-malarial activity (in words)": "poor inhibitor of P. falciparum growth"},
      {"smiles": "CC(C)(C)c1ccc(CC(=O)CCNC(=O)[C@H](O)C(C)(C)CO)cc1", "note": "[CXP14.1-060]", "anti-malarial activity (in words)": "no anti-malarial activity"},
      {"smiles": "CC(C)(CO)[C@@H](O)C(=O)NCCCO", "note": "[Pantothenol]", "anti-malarial activity (in words)": "no anti-malarial activity"},
      {"smiles": "CC(C)(CO)[C@@H](O)C(=O)NCCC(=O)c1ccccc1", "note": "[SN 12,601]", "anti-malarial activity (in words)": "moderate activity"},
      {"smiles": "CC(C)(CO)[C@@H](O)C(=O)NCCS(=O)(=O)Nc1ccccc1", "note": "[SN 14,621]", "anti-malarial activity (in words)": "moderate activity"},
      {"smiles": "CC(C)(CO)[C@@H](O)C(=O)NCCS(=O)(=O)Nc1ccc(Cl)cc1", "note": "[SN 14,622]", "anti-malarial activity (in words)": "moderate activity"}
    ]},
    {"system": "asexual NF54 strain P. falciparum", "test": "Plasmodium falciparum asexual blood stages proliferation assay with SYBR Green read-out", "type": "cell-based", "conditions": "compound alone; NF54 asexual blood stages, 10% human serum, 72 hours, relative to DHA control; read-out: Anti-malarial activity IC50", "procedure": "as §1, §2, §3, §4", "units": {"IC50": "µM"}, "values": [
      {"smiles": "CCCCCNC(=O)CCNC(=O)[C@H](O)C(C)(C)CO", "note": "[N5-Pan]", "IC50": 45.1},
      {"smiles": "CCCCCCCNC(=O)CCNC(=O)[C@H](O)C(C)(C)CO", "note": "[N7-Pan]", "IC50": 79},
      {"smiles": "CCCCCCCCCNC(=O)CCNC(=O)[C@H](O)C(C)(C)CO", "note": "[N9-Pan]", "IC50": 14.6},
      {"smiles": "CC(C)(CO)[C@@H](O)C(=O)NCCC(=O)NCCc1ccccc1", "note": "[Phenethyl-Pan]", "IC50": 98.2}
    ]},
    {"system": "asexual NF54 strain P. falciparum", "test": "Plasmodium falciparum asexual blood stages proliferation assay with SYBR Green read-out", "type": "cell-based", "conditions": "in the presence of 10 μM of vanin inhibitor CXP14.1-060; comparable to DHA", "procedure": "as §1, §2, §3, §4", "values": [
      {"smiles": "CC(C)(CO)[C@@H](O)C(=O)NCCC(=O)NCCc1ccccc1", "note": "[Phenethyl-Pan]", "efficacy of parasite growth inhibition": "full inhibition of parasite growth"}
    ]},
    {"system": "asexual NF54 strain P. falciparum", "test": "Plasmodium falciparum asexual blood stages proliferation assay with SYBR Green read-out", "type": "cell-based", "conditions": "reference compound", "procedure": "as §1, §2, §3, §4", "values": [
      {"smiles": "C[C@H]1[C@@H](O)O[C@@H]2O[C@@]3(C)CC[C@H]4[C@H](C)CC[C@@H]1[C@@]24OO3", "note": "[DHA, dihydroartemisinin]", "Anti-malarial IC50 (in words)": "low nanomolar range"}
    ]}
  ]
}
